Source: ChEMBL document CHEMBL5325504, “Bioactive Indole Alkaloid from Aspergillus amoenus TJ507 That Ameliorates Hepatic Ischemia/Reperfusion Injury” (J Nat Prod, 2023)
Active and inactive are the calls of the source. The calls are words filed in the database; no cut-off is given here.

Legend:
AML12 [1] = test: Cytoprotective activity against CoCl2-induced mouse AML12 cells assessed as increase in cell survival rate by CCK8 method; format: functional, cell-based
Mus musculus [2] = species on record: Mus musculus; test: Hepatoprotective activity against ischemia-reperfusion injury mouse model assessed as reduction in cleaved caspase-3 by IHC staining based analysis; format: functional, organism-based
Mus musculus [3] = species on record: Mus musculus; test: Hepatoprotective activity against ischemia-reperfusion injury mouse model assessed as reduction in translocation of HMGB1 from nucleus to cytoplasm by IHC staining based analysis; format: functional, organism-based
Mus musculus [4] = species on record: Mus musculus; test: Hepatoprotective activity against ischemia-reperfusion injury mouse model assessed as reduction in TUNEL positive cells by TUNEL staining based analysis; format: functional, organism-based
Mus musculus [5] = test: Hepatoprotective activity against ischemia-reperfusion injury mouse model assessed as reduction in ALT level in serum at 10 mg/kg, ip administered once daily for 3 days; format: functional, organism-based; details: time 3.0 day
Mus musculus [6] = species on record: Mus musculus; test: Hepatoprotective activity against ischemia-reperfusion injury mouse model assessed as reduction in leukocyte infiltration by H and E staining based analysis; format: functional, organism-based
Mus musculus [7] = species on record: Mus musculus; test: Hepatoprotective activity against ischemia-reperfusion injury mouse model assessed as reduction in MPO expression level by IHC staining based analysis; format: functional, organism-based
AML12 [8] = test: Cytoprotective activity against CoCl2-induced mouse AML12 cells assessed as increased cell survival rate at 1.25 to 10 uM by CCK8 assay; format: functional, cell-based; details: dose 1.25-10 µM
AML12 [9] = test: Cytotoxicity against mouse AML12 cells assessed as reduction in cell survival rate at by CCK8 assay; format: toxicity, cell-based
Mus musculus [10] = test: Hepatoprotective activity against ischemia-reperfusion injury mouse model assessed as reduction in AST level in serum at 10 mg/kg, ip administered once daily for 3 days; format: functional, organism-based; details: time 3.0 day
Mus musculus [11] = test: Hepatoprotective activity against ischemia-reperfusion injury mouse model assessed as reduction in LDH level in serum at 10 mg/kg, ip administered once daily for 3 days; format: functional, organism-based; details: time 3.0 day
Mus musculus [12] = species on record: Mus musculus; test: Hepatoprotective activity against ischemia-reperfusion injury mouse model assessed as reduction in necrocytosis by H and E staining based analysis; format: functional, organism-based
Mus musculus [13] = species on record: Mus musculus; test: Hepatoprotective activity against ischemia-reperfusion injury mouse model assessed as reduction in liver ecchymosis by H and E staining based analysis; format: functional, organism-based

For C/C=C1\NC(=O)[C@H](Cc2c[nH]c3ccccc23)N(C)C1=O, the Activity (AML12 [1]) was “inactive”.
For C=CC(C)(C)C(=O)Nc1c(C(=O)C[C@@H]2NC(=O)[C@@H]3CCCN3C2=O)ccc(O)c1CC=C(C)C, the Activity (AML12 [1]) was “inactive”.
With C=CC(C)(C)[C@@]1(C[C@@H]2NC(=O)[C@]3(OC)CCCN3C2=O)C(=O)Nc2c1ccc1c2C=CC(C)(C)O1 the Activity (AML12 [1]) was “inactive”.
In the case of C=CC(C)(C)[C@]1(C[C@@H]2NC(=O)[C@@H]3CCCN3C2=O)C(=O)Nc2c1ccc(O)c2CC=C(C)C, the Activity (AML12 [1]) is reported as “inactive”.
With CC1(C)C=Cc2c(ccc3c2N(O)C(=O)[C@@]32C[C@@]34NC(=O)[C@]5(CCCN5C3=O)C[C@H]4C2(C)C)O1 the Activity (AML12 [1]) was “inactive”.
CC1(C)C=Cc2c(ccc3c2NC(=O)[C@@]32C[C@@]34NC(=O)[C@]5(CCCN5C3=O)C[C@H]4C2(C)C)O1 was tested, and the Activity (AML12 [1]) was “inactive”.
C=CC(C)(C)[C@]1(C[C@@H]2NC(=O)[C@]3(OC)CCCN3C2=O)C(=O)Nc2c1ccc1c2C=CC(C)(C)O1 [NOTOAMIDE Q] was tested, and the Activity (Mus musculus [2]) was “Active”, the Activity (Mus musculus [3]) was “Active” and the Activity (Mus musculus [4]) was “Active”. For the same compound, the Activity (Mus musculus [5]) was “Active”, the Activity (Mus musculus [6]) was “Active” and the Activity (Mus musculus [7]) was “Active”. The Activity (AML12 [8]) was “Active”, the Activity (AML12 [9]) was “Non-Toxic” and the Activity (Mus musculus [10]) was “Active”. For the same compound, the Activity (Mus musculus [11]) was “Active”, the Activity (Mus musculus [12]) was “Active” and the Activity (Mus musculus [13]) was “Active”. The Activity (AML12 [1]) was “Active”.
